Columns and labels:
[1] = test system: Heteraxine heterocerca larvae; assay: Trial 2: in vitro immersion in octanoic acid seawater; format: cell-based; conditions: 800 PPM octanoic acid added to seawater, 20 degrees centigrade
Description: (§1) 800 PPM of octanoic acid was added to seawater and dissolved therein maximally. In this seawater solution, Bivagina tai larvae sampled from the gill of red sea bream, Heteraxine heterocerca larvae sampled from the gill of young yellowtail, Benedenia seriolae adults sampled from the body surface of young yellowtail, Kudoa shiomitsui spores sampled from the heart of tiger puffer, and Pseudocaligus fugu adults sampled from the body surface of tiger puffer were immersed under condition of 20 degrees centigrade, followed by observation. As control, another group was managed using seawater alone. More than 30 individuals of parasites were transferred to each group.

[2] = test system: Pseudocaligus fugu adults; assay: as above; format: cell-based; conditions: 800 PPM octanoic acid added to seawater, 20 degrees centigrade
Description: as §1

Kudoa shiomitsui spores = assay: as above; format: cell-based; conditions: 800 PPM octanoic acid added to seawater, 20 degrees centigrade
Description: as §1

Bivagina tai larvae = assay: as above; format: cell-based; conditions: 800 PPM octanoic acid added to seawater, 20 degrees centigrade
Description: as §1

[3] = test system: Benedenia seriolae adults; assay: as above; format: cell-based; conditions: 800 PPM octanoic acid added to seawater, 20 degrees centigrade
Description: as §1

Cryptocaryon irritans = assay: Trial 7: vitamin C enhancement trial on red sea bream; format: in vivo; conditions: oral
Source text: Fish tested: Red sea bream weighing approximately 15.8 g in average.
(§2) Trial groups: Three groups, i.e., an octanoic-acid added group in which fish were fed diets added with octanoic acid, an octanoic-acid added/vitamin-C enhanced group in which fish were fed diets added with both octanoic acid and vitamin C, and a control group in which fish were fed diets not added with octanoic acid. The feeding rate was 3% of fish weight/day for each group.
(§3) Trial diets: The diets added with octanoic acid were prepared by spraying 2.5 g of octanoic acid to 1 kg of commercially available pellets for red sea bream. The diets added with both octanoic acid and vitamin C were prepared by spraying 200 mg of vitamin C, dissolved in water, to 1 kg of the above diets added with octanoic acid. The control group fish were fed the commercially available pellets for red sea bream.
Challenge trial: Each 30 pieces of fish from among a shoal of fish, in which no diseases such as Cryptocaryon irritans infection were found, were put in a 100-liter water tank, and were fed the respective trial diets. After 5 days, approximately 2000 individuals of theronts of Cryptocaryon irritans were put into each water tank to infect the fish while water flow was stopped for 1 hour. Then, bleeding was continued for 60 days. During the trial period, the water temperature was 24+−1 degrees centigrade and the water was exchanged at 20 cycles/day.
Evaluation was made by sampling 5 pieces of fish from each group after 18 and 31 days from the start of the challenge, comparing the number of the parasites attaching to the gill of each fish, and comparing mortality of the fish during the trial period between the respective groups.

Benedenia seriolae = assay: Trial 5: oral octanoic acid, field trial on amberjack; format: in vivo; conditions: 8 g octanoic acid per 1 kg pellets, 9 days
Description: (§4) Fish tested: Amberjack weighing approximately 117 g in average.
(§5) Trial groups: Two groups, i.e., an octanoic-acid added group in which fish were fed diets added with octanoic acid, and a control group in which fish were fed diets not added with octanoic acid. The feeding rate was 3% of fish weight/day for each group.
(§6) Trial diets: The diets added with octanoic acid were prepared by spraying 8 g of octanoic acid to 1 kg of commercially available pellets for amberjack. The control group fish were fed the commercially available pellets for amberjack.
(§7) Trial: The trial was conducted using off-shore net pens of 10×10×9 m placed in the field sea. Each 15000 pieces of fish for each group were treated with a parasiticide containing commercially available hydrogen peroxide as a main ingredient, and then put in each net pen. At this time, it was confirmed that Heteraxine heterocerca parasitizing to the gill and Benedenia seriolae parasitizing on the body surface were eliminated, by investigating 20 pieces of fish for each group. It was also simultaneously confirmed that blood flukes (Pradeontacylix) were present in the fish, by investigating the presence of eggs in the gill filaments. Then, bleeding was continued for 9 days while feeding the trial diets. The water temperature during the trial period was in the range of 18.5-20.0 degrees centigrade.
(§8) Evaluation was made by sampling 20 pieces of fish from each group after 9 days from the start of the bleeding, and counting and comparing the number of Heteraxine heterocerca in the gill of each sampled fish, the number of Benedenia seriolae on the body surface, and the number of eggs of blood flukes (Paradeontacylix) in the gill filaments.

[4] = test system: blood flukes (Paradeontacylix); assay: as above; format: in vivo; conditions: 8 g octanoic acid per 1 kg pellets, 9 days
Description: as §4, §5, §6, §7, §8

Heteraxine heterocerca = assay: as above; format: in vivo; conditions: 8 g octanoic acid per 1 kg pellets, 9 days
Description: as §4, §5, §6, §7, §8

Heterobothrium okamotoi = assay: Trial 6: vitamin C enhancement trial on tiger puffer; format: in vivo; conditions: 5 g octanoic acid per 1 kg pellets (with or without 200 mg vitamin C per kg), oral, 15 days after first challenge
Source text: Fish tested: Tiger puffer weighing approximately 50.0 g in average.
as §2, with “2%” for “3%”
as §3, with “5” for “2.5”, “tiger puffer.” for “red sea bream.”
Challenge trial: Each 5 pieces of fish from among a shoal of fish, in which no diseases such as parasitic infections were found, were put in a 100-liter water tank, and were fed the respective trial diets. After 7 days, approximately 750 individuals of oncomiracidia of Heterobothrium okamotoi were put into each water tank to infect the fish while water flow was stopped for 1 hour. The infection procedure was repeated every other day 5 times in total under the same condition. […]

[5] = test system: Heterobothrium okamotoi larvae; assay: Immersion of Heterobothrium okamotoi larvae in seawater with dissolved octanoic acid; format: cell-based; conditions: seawater in which octanoic acid was dissolved
Description: Larvae of parasites Heterobothrium okamotoi were immersed in seawater in which octanoic acid was dissolved. […] Octanoic acid is an edible natural material contained in palm oil, butter and nuts, and has been used in a drug applied to dyspeptics, for example.

## CCCCCCCC(=O)O [octanoic acid]
[1]
  contraction of parasites: became contracted apparently
  time until contraction occurred: approximately 10 minutes
[2]
  contraction of parasites: no contraction
  time until reduction in swimming activity was found: approximately 1 hour
Kudoa shiomitsui spores
  time until burst image of the spores was observed: approximately 1 hour
Bivagina tai larvae
  contraction of parasites: became contracted apparently
  time until contraction occurred: approximately 10 minutes
[3]
  contraction of parasites: became contracted apparently
  time until contraction occurred: approximately 10 minutes
Cryptocaryon irritans; 2.5 g octanoic acid per 1 kg pellets (with or without 200 mg vitamin C per kg)
  number of parasites attaching to the gill after 18 and 31 days: apparently fewer
Cryptocaryon irritans; 2.5 g octanoic acid per 1 kg pellets (with or without 200 mg vitamin C per kg), 60 days
  fish mortality during the trial: all dead
Cryptocaryon irritans; 2.5 g octanoic acid per 1 kg pellets
  time at which the fish began dying, versus control: later
Benedenia seriolae
  number of Benedenia seriolae on the body surface, versus control: no appreciable difference
[4]
  eggs of blood flukes in the gill filaments: no eggs of blood flukes were observed
Heteraxine heterocerca
  number of Heteraxine heterocerca in the gill, versus control: apparently fewer
Heterobothrium okamotoi
  number of parasites attaching to the gill: apparently fewer
[5]
  effect on larvae: died due to the occurrence of structural damages (such as vacuolation)

Reference: patent US20030162834A1, “Natural physiologically active material effective on fish diseases and fish food containing the material” (priority 1998, published 2003)
